Our source for the urinary retention values is patent publication US8901177B2, “Method of treating bladder disorders” (Targacept, Inc., priority 2012, dated 2014).

This series in a line: Mouse carcinogenicity studies. It counts as in vivo. Conditions: much higher doses and concentrations than in the clinical program. The text has this:
Further, the Summary Basis of Approval for Detrol® indicates similar (lower rates) of bladder dilatation, as is noted in dexmecamylamine's carcinogenicity studies. Urinary retention, and concomitant urinary tract infection, is not anticipated to be a therapy-limiting side effect for relatively low doses and concentrations of dexmecamylamine (FIG. 24).

In the case of `CNC1(C)[C@H]2CCC(C2)C1(C)C` (stereo partly drawn) [TC-5214, (S)—N,2,3,3-tetramethylnorbornan-2-amine], the urinary retention entry was “urinary retention was noted”.
